Measurements published in patent US11584747B2, “Substituted pyridopyrimidinonyl compounds useful as T cell activators” (BRISTOL-MYERS SQUIBB COMPANY, priority 2019, dated 2023).
Read-outs that look alike come from different tables or passages of the source.

How the values were obtained:
whole blood (pERK) = experiment: pERK Whole Blood assay (Table A; no whole-blood pERK method described); type: cell-based; conditions: normalized
human DGKα [1] = molecular target: T1, human DGKα (Homo sapiens (Human), UniProt P23743); experiment: DGKα ADPGLO assay (detergent/lipid micelle substrate); type: biochemical; conditions: truncated DGK alpha; read-out: DGK alpha ADPGLO (Truncated) IC50
T1 sequence (P23743 whole entry, looked up, the tested form may be a part): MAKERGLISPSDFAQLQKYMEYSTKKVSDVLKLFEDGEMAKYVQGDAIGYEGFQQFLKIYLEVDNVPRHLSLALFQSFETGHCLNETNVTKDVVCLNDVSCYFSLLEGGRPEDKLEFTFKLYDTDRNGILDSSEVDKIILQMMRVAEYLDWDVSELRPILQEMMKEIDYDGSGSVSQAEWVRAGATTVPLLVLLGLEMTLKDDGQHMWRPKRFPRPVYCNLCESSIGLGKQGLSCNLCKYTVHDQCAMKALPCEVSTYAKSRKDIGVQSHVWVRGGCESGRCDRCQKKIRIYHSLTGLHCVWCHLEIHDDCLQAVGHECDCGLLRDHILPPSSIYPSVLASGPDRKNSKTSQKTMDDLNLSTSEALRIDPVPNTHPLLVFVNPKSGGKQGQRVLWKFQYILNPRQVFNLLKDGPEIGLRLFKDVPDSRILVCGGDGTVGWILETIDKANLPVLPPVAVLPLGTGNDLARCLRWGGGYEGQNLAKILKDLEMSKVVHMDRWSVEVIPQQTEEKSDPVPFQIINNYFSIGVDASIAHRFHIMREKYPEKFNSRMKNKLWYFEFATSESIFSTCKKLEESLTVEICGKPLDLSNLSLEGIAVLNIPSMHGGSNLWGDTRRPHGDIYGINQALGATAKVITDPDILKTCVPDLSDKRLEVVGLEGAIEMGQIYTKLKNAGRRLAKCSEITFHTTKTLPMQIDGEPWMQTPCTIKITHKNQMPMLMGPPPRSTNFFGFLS
Protocol: DGK Alpha ADPGLO (Truncated) IC50 (uM)
The detergent/lipid micelle was prepared by combining 15 g phosphatidylserine (Avanti 840035P) and 1 g diacylglycerol (8008110) and dissolving into 150 mL chloroform in a 2 L round bottom flask. Chloroform was removed under high vacuum by rotary evaporation. […] The lipid/detergent solution was split into 5 mL aliquots and stored at −80° C.

human DGKζ = human DGKζ (Homo sapiens (Human), UniProt Q13574); experiment: DGKζ LIPGLO assay (extruded liposome substrate, ADP-Glo luminescence); type: biochemical; conditions: liposome assay; read-out: DGK zeta LIPGLO IC50
human DGKζ, sequence (Q13574 other isoform, or with tags, fused parts or gaps): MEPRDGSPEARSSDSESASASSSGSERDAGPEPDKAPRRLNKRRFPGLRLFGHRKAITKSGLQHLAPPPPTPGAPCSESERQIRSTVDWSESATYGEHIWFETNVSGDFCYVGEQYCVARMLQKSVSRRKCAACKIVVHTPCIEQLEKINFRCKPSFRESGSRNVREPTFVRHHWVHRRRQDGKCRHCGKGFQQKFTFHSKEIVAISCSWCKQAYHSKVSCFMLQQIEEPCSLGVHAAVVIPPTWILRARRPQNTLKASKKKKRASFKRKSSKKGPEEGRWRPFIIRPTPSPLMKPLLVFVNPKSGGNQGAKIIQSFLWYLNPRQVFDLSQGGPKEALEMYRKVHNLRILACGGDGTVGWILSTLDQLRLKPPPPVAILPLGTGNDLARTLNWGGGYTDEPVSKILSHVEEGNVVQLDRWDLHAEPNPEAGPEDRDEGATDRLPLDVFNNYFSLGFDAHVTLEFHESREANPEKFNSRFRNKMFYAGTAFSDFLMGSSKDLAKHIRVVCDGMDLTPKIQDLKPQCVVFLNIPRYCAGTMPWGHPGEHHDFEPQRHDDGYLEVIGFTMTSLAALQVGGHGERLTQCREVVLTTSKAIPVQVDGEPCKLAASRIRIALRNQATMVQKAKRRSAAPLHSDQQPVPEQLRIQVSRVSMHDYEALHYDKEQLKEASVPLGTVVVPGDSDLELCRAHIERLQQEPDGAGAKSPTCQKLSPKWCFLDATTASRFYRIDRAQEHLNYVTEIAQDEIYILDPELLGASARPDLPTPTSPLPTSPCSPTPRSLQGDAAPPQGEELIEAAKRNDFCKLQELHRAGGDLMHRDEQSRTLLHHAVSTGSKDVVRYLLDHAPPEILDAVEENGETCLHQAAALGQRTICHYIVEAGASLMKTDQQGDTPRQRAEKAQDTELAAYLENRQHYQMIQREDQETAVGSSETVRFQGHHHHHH

[2] = test system: human venous whole blood (IFN-γ); experiment: Human whole blood IFN-γ assay; type: cell-based; conditions: whole blood, normalized to 3 μM reference compound as 100% activation, read-out: IFN-γ Whole Blood Normalized EC50
Protocol: Human venous whole blood (22.5 μL per well), obtained from healthy donors, was pre-treated with compounds for one hour at 37° C. in a humidified 95% air/5% CO2 incubator. The blood was stimulated with 2.5 μL anti-human CD3 and anti-CD28 mAb at a final concentration of 1 μg/mL each for 24 hours at 37° C. IFN-γ in the supernatants was measured using AlphLISA kit (Cat #AL217).

human DGKα [3] = molecular target: T1, human DGKα; experiment: DGKα LIPGLO assay (extruded liposome substrate, ADP-Glo luminescence); type: biochemical; conditions: liposome assay; read-out: DGK alpha LIPGLO IC50

IC50 (human DGKα [1]) [µM]	IC50 (human DGKζ) [µM]	IC50 (human DGKα [3]) [µM]	SMILES	IC50 (whole blood (pERK)) [µM]	EC50 ([2]; Homo sapiens) [µM]	EC50 [2] [µM]
1.95	57.2	–	CC[C@H]1CN(C(C)c2ccc(CN3CCC[C@@H](O)C3)cc2)[C@H](CC)CN1c1nc(=O)n(C)c2ccc(C#N)nc12 (stereo partly drawn) [Example 290, 4-((2S,5R)-2,5-diethyl-4-(1-(4-(((R)-3-hydroxypiperidin-1-yl)methyl)phenyl)ethyl)piperazin-1-yl)-1-methyl-2-oxo-1,2-dihydropyrido[3,2-d]pyrimidine-6-carbonitrile]	20	–	–
17	62.4	–	CC[C@H]1CN(C(C)c2ccc(CN3CC4(COC4)C3)cc2)[C@H](CC)CN1c1nc(=O)n(C)c2ccc(C#N)nc12 (stereo partly drawn) [Example 279, 4-((2S,5R)-4-(1-(4-((2-oxa-6-azaspiro[3.3]heptan-6-yl)methyl)phenyl)ethyl)-2,5-diethylpiperazin-1-yl)-1-methyl-2-oxo-1,2-dihydropyrido[3,2-d]pyrimidine-6-carbonitrile]	2.92	–	–
–	0.04	–	CC[C@H]1CN(C(c2ccc(OC)cc2)C(C)C)[C@H](CC)CN1c1nc(=O)n(C)c2ccc(C#N)nc12 (stereo partly drawn) [Example 249, 4-((2S,5R)-2,5-diethyl-4-(1-(4-methoxyphenyl)-2-methylpropyl)piperazin-1-yl)-1-methyl-2-oxo-1,2-dihydropyrido[3,2-d]pyrimidine-6-carbonitrile]	0.42	–	–
–	5.25	–	CC[C@H]1CN(C(C)c2ccc(C(F)(F)F)cc2N2CCOCC2)[C@H](CC)CN1c1nc(=O)n(C)c2ccc(C#N)nc12 (stereo partly drawn) [Example 194, 4-((2S,5R)-2,5-diethyl-4-(1-(2-morpholino-4-(trifluoromethyl)phenyl)ethyl)piperazin-1-yl)-1-methyl-2-oxo-1,2-dihydropyrido[3,2-d]pyrimidine-6-carbonitrile]	0.27	–	–
–	–	–	CC[C@@H]1CN(c2nc(=O)n(C)c3ccc(C#N)nc23)[C@@H](C)CN1C(c1ccc(F)cc1)c1ccc(C(F)(F)F)cn1 (stereo partly drawn) [Example 46, 4-((2S,5R)-5-Ethyl-4((4-fluorophenyl)(5-(trifluoromethyl)pyridin-2-yl)methyl)-2-methylpiperazin-1-yl)-1-methyl-2-oxo-1,2-dihydropyrido[3,2-d]pyrimidine-6-carbonitrile]	0.043	0.073	–
–	–	–	CC[C@@H]1CN(c2nc(=O)n(C)c3ccc(C#N)nc23)[C@@H](C)CN1C(c1ccc(Cl)cc1)c1ccccn1 (single isomer, unassigned) [Example 95]	10.5	–	0.37
0.009	0.043	–	CCC(c1ccc(C2CC2)cc1F)N1C[C@H](C)N(c2nc(=O)n(C)c3ccc(C#N)nc23)C[C@H]1CC (stereo partly drawn) [Example 302, 4-((2S,5R)-4-(1-(4-cyclopropyl-2-fluorophenyl)propyl)-5-ethyl-2-methylpiperazin-1-yl)-1-methyl-2-oxo-1,2-dihydropyrido[3,2-d]pyrimidine-6-carbonitrile]	0.034	–	–
1.51	2.94	–	CCC(c1ccc(OC2CC2)cc1)N1C[C@H](CC)N(c2nc(=O)n(C)c3ccc(C#N)nc23)C[C@H]1CC (stereo partly drawn) [Example 256, 4-((2S,5R)-4-(1-(4-cyclopropoxyphenyl)propyl)-2,5-diethylpiperazin-1-yl)-1-methyl-2-oxo-1,2-dihydropyrido[3,2-d]pyrimidine-6-carbonitrile]	0.29	–	–
–	–	–	C[C@@H]1CN(c2nc(=O)n(C)c3ccc(C#N)nc23)[C@@H](C)CN1C(c1ccc(F)cc1)c1ccc(C(F)(F)F)cn1 (single isomer, unassigned) [Example 127]	0.24	0.41	–
0.17	0.017	–	CC[C@H]1CN(C(c2ccc(OC(C)C)cc2)C(C)C)[C@H](CC)CN1c1nc(=O)n(C)c2ccc(C#N)nc12 (stereo partly drawn) [Example 261, 4-((2S,5R)-2,5-diethyl-4-(1-(4-isopropoxyphenyl)-2-methylpropyl)piperazin-1-yl)-1-methyl-2-oxo-1,2-dihydropyrido[3,2-d]pyrimidine-6-carbonitrile]	0.68	–	–
0.21	1.01	–	CC[C@H]1CN(C(C)c2ccc(CN3C[C@@H](C)O[C@@H](C)C3)cc2)[C@H](CC)CN1c1nc(=O)n(C)c2ccc(C#N)nc12 (stereo partly drawn) [Example 292, 4-((2S,5R)-4-(1-(4-(((2S,6R)-2,6-dimethylmorpholino)methyl)phenyl)ethyl)-2,5-diethylpiperazin-1-yl)-1-methyl-2-oxo-1,2-dihydropyrido[3,2-d]pyrimidine-6-carbonitrile]	1.1	–	–
0.058	–	–	CCC(c1ccc(C(F)(F)F)cc1)N1C[C@H](CC)N(c2nc(=O)n(C)c3ccc(C#N)nc23)C[C@H]1CC (single isomer, unassigned) [Example 6]	6.98	–	–
0.11	0.43	–	CC[C@H]1CN(C(C)c2ccc(CN3C[C@@H](C)O[C@@H](C)C3)cc2)[C@H](CC)CN1c1nc(=O)n(C)c2ccc(C#N)nc12 (stereo partly drawn) [Example 291, 4-((2S,5R)-4-(1-(4-(((2S,6R)-2,6-dimethylmorpholino)methyl)phenyl)ethyl)-2,5-diethylpiperazin-1-yl)-1-methyl-2-oxo-1,2-dihydropyrido[3,2-d]pyrimidine-6-carbonitrile]	0.39	–	–
0.42	2.37	2.94	CCC(c1ccc(OC(F)(F)F)cc1F)N1C[C@H](C)N(c2nc(=O)n(C)c3ccc(C#N)nc23)C[C@H]1CC (single isomer, unassigned) [Example 86]	–	–	1.54
–	–	–	CC[C@H]1CN(C(c2ccc(F)cc2)c2nc(C3CC3)no2)[C@H](CC)CN1c1nc(=O)n(C)c2ccc(C#N)nc12 (single isomer, unassigned) [Example 110]	0.015	–	0.009
0.33	1.15	–	CC[C@H]1CN(C(c2ccc(OC)cc2)C(C)C)[C@H](CC)CN1c1nc(=O)n(C)c2ccc(C#N)nc12 (stereo partly drawn) [Example 250, 4-((2S,5R)-2,5-diethyl-4-(1-(4-methoxyphenyl)-2-methylpropyl)piperazin-1-yl)-1-methyl-2-oxo-1,2-dihydropyrido[3,2-d]pyrimidine-6-carbonitrile]	1.8	–	–
0.12	0.47	0.069	CCC(c1ccc(OC(F)(F)F)cc1)N1C[C@H](CC)N(c2nc(=O)n(C)c3ccc(C#N)nc23)C[C@H]1CC (single isomer, unassigned) [Example 37]	–	–	20
–	–	–	CC[C@H]1CN(C(c2ccc(F)cc2)c2nc(C3CC3)no2)[C@H](CC)CN1c1nc(=O)n(C)c2ccc(C#N)nc12 (single isomer, unassigned) [Example 111]	0.09	–	0.021
–	–	–	CC[C@H]1CN(C(c2ccc(OC(C)C)cc2)C(C)C)[C@H](CC)CN1c1nc(=O)n(C)c2ccc(C#N)nc12 (stereo partly drawn) [Example 262, 4-((2S,5R)-2,5-diethyl-4-(1-(4-isopropoxyphenyl)-2-methylpropyl)piperazin-1-yl)-1-methyl-2-oxo-1,2-dihydropyrido[3,2-d]pyrimidine-6-carbonitrile]	4.15	–	–
–	–	–	CC[C@@H]1CN(c2nc(=O)n(C)c3ccc(C#N)nc23)[C@@H](C)CN1C(c1ccc(F)cc1)c1ccc(C(F)(F)F)cn1 (single isomer, unassigned) [Example 47]	0.02	0.032	–
0.14	–	–	CC[C@@H]1CN(c2nc(=O)n(C)c3ccc(C#N)nc23)[C@@H](C)CN1C(C)c1ccc(C(F)(F)F)cc1 (single isomer, unassigned) [Example 8]	0.18	–	–
